Laboratory results as given in US20250243160A1, “INDOLE DERIVATIVES FOR TARGETING AUTOPHAGY” (Automera PTE. LTD, priority 2024, published 2025).

Experiments:
Recombinant p62 protein = Recombinant p62 protein (Homo sapiens, UniProt Q13501); test: Surface plasmon resonance (SPR) compound binding to p62; conditions: 15° C
Protocol: Recombinant p62 protein was buffer exchanged into Biacore SPR running buffer (Cytiva 100671) using the Slide-A-Lyzer Mini Dialysis system 7K MWCO (Thermo Fisher Scientific, Cat no. 69560). The final protein concentration was determined using the Nanodrop One spectrophotometer (Thermo Fisher Scientific, cat no. ND-ONE-W), with calibration for the dialysis buffer.
The prepared protein was diluted in sodium acetate buffer (NaAc, pH 5.5, Cytiva) to concentrations ranging from approximately 0.25-40 μg/mL. Post-immobilization, the protein required approximately 16 hours of equilibration in running buffer supplemented with 1% DMSO at 15° C. to ensure adequate surface equilibration and protein reorganization.
All SPR experiments were conducted at a constant temperature of 15° C. The SPR chip surface was activated using EDC/NHS for a contact time of 6-10 min at a flow rate of 10 μL/min. This was followed by protein immobilization for 2100 seconds and ethanolamine capping for 420 seconds, both at the same flow rate. Immediately after immobilization, the NH2-REEE peptide was analyzed in Single Cycle Kinetics mode (SCK) to verify surface activity, ensuring it binds the sample with the published affinity (˜20 μM by SPR).
For general compound binding studies, experiments were performed at 15° C. using a running buffer composed of 10 mM HEPES, 150 mM NaCl, 1 mM DTT, 0.05% Tween 20, and 1% DMSO at pH 7.4. The test compound was initially prepared at a 20 mM concentration in DMSO and subsequently titrated in 2-fold dilutions. For each assay, 2 μL of the compound was mixed with 198 μL of the running buffer, and the mixture was thoroughly pipetted approximately 15 times for homogenization.
A series of blank injections (0 μM concentration) were included for double referencing, with at least 8 or 16 per plate depending on the format. Typical injection parameters were 120 seconds for association and 180 seconds for dissociation at a flow rate of […]. A four-point solvent correction was prepared with DMSO concentrations ranging from 2% to 0.5% in the buffer. Post each compound injection, the system's needles were washed with 50% DMSO.
Analysis of the SPR data was conducted using the Cytiva Evaluation software. The binding levels at the late time-point of each interaction were corrected for reference, then normalized to percentage bound values to account for variations in immobilization levels, protein molecular weight, and compound molecular weight.
Compound binding studies were carried out according to experimental procedures above and SPR % occupancy was determined and summarized in Table 7.

p62 puncta = p62 puncta immunocytochemistry imaging in HeLa cells; format: cell-based; conditions: 24 hours treatment, relative to vehicle control (DMSO)
Protocol: HeLa cells were seeded in coated 96-well plates (10,000 cells) and allowed to adhere overnight. After 24 hours of treatment with either vehicle (DMSO) or test compounds, the media was discarded, and cells were rinsed with ice-cold 1×PBS before fixation by 4% formaldehyde or paraformaldehyde for 20 min. Cells were then washed with 1×PBS and permeabilized with 0.1% Triton X-100 in PBS for 20 min and blocked with Blocking Buffer in PBS for 1 hour. The cells were incubated thereafter for 1 hour with anti-p62 primary antibody in Blocking Buffer, followed by incubation with secondary antibody for 1 hour. DAPI dye was used to visualize nuclei of fixed cells. The blocking buffer used were 5% Fetal Bovine Serum (FBS, ThermoFIsher Scientific, 10270106) and Li-cor Intercept (PBS) Blocking Buffer (Li-cor, 927-70001). The primary antibody used was mouse anti-p62 primary antibody (Novus Biologicals, H00008878-M01). The secondary antibodies used were goat anti-mouse Alexa Fluor Plus 488 secondary antibody (Invitrogen, GOXMS) and goat anti-mouse Alexa Fluor 488 secondary antibody (Invitrogen, A-11029). The DAPI dyes used were DAPI dye (Invitrogen, 62248) and DAPI dye (Invitrogen, D1306).
For the EVOS M7000 System, cells were imaged on the EVOS M7000 microscope using a 20× air objective (Nikon, N.A 0.45). DAPI and p62 channels were illuminated with LED light cubes using integrated hard-coated filter sets for DAPI (357/447 nm) and GFP (470/525 nm) respectively. Images were analysed for p62 puncta count on the Celeste 6.0 software.
For the Operetta CLS System, cells were imaged on the Operetta CLS using a 63× water objective on the DAPI and Alexa 488 channels. Images were analysed for p62 puncta count on the Harmony 5.1 software.
HeLa cells were treated with compounds for 24 hours to evaluate the effect of these compounds on p62 puncta activity. The resulting changes in levels of p62 puncta were assessed by imaging, either on the EVOS M7000 or Operetta CLS systems as described in experimental procedures. The fold change of p62 puncta levels induced by compound treatment relative to vehicle control (DMSO) was determined and summarized in Table 10.

Sequence of Recombinant p62 protein (Q13501 whole entry, species assumed): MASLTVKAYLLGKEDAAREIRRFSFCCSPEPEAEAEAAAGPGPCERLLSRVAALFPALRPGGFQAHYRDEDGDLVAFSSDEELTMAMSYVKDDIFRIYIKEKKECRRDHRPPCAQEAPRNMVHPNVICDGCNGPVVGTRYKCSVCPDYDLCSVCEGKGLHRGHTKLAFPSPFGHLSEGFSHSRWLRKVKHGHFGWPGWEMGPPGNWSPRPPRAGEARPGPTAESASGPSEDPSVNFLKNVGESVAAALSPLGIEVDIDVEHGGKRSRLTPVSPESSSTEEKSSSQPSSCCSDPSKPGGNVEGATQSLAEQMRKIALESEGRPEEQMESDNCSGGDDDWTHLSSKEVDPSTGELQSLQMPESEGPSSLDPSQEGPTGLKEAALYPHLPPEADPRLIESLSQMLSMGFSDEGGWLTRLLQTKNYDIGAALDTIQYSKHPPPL

Row | receptor occupancy at 100 µM (Recombinant p62 protein) [%] | SMILES | p62 puncta (fold change of p62 puncta levels) (p62 puncta)
1 | < 30 | OCCNCc1ccc2ccn(Cc3ccccc3)c2c1 [Compound 2] | –
2 | < 30 | O=C(NCCO)c1cccc2c1ccn2Cc1ccccc1 [Compound 4, 1-benzyl-N-(2-hydroxyethyl)-1H-indole-4-carboxamide] | –
3 | < 30 | O=C(CCO)Nc1cccc2c1ccn2Cc1ccccc1 [Compound 8] | –
4 | 30 to 70 | OCCNCc1cccc2c1ccn2Cc1ccccc1Cl [Compound 12] | –
5 | < 30 | OCCNCc1cccc2c1ccn2Cc1ccncc1 [Compound 14] | –
6 | 30 to 70 | COc1ccc(Cn2ccc3c(CNCCO)cccc32)cc1 [Compound 15] | –
7 | > 70 | O=C(c1ccccc1)n1ccc2c(CNCCO)cccc21 [Compound 16, (4-(((2-hydroxyethyl)amino)methyl)-1H-indol-1-yl)(phenyl)methanone] | –
8 | 30 to 70 | O=S(=O)(c1ccccc1)n1ccc2c(CNCCO)cccc21 [Compound 17, 2-(((1-(phenylsulfonyl)-1H-indol-4-yl)methyl)amino)ethan-1-ol] | –
9 | – | CC(C)(C)OC(=O)CCCCOCCNCc1cc(F)cc2c1ccn2Cc1ccc(Cl)cc1 [Compound 147] | + (<2-fold change in p62 puncta levels relative to DMSO control)
10 | – | C#CCCCCCOCCNCc1cc(F)cc2c1ccn2Cc1ccc(Cl)cc1 [Compound 148] | + (<2-fold change in p62 puncta levels relative to DMSO control)
11 | – | CC(C)(C)OC(=O)CCCCCCCCOCCNCc1cc(F)cc2c1ccn2Cc1ccc(Cl)cc1 [Compound 149] | + (<2-fold change in p62 puncta levels relative to DMSO control)
12 | – | CC(C)(C)OC(=O)CCCCCOCCNCc1cc(F)cc2c1ccn2Cc1ccc(Cl)cc1 [Compound 150] | + (<2-fold change in p62 puncta levels relative to DMSO control)
13 | – | C#CCCCCCCOCCNCc1cc(F)cc2c1ccn2Cc1ccc(Cl)cc1 [Compound 151] | + (<2-fold change in p62 puncta levels relative to DMSO control)
14 | – | CCOC(=O)C1CCN(C(=O)COCCNCc2cc(F)cc3c2ccn3Cc2ccc(Cl)cc2)CC1 [Compound 152] | + (<2-fold change in p62 puncta levels relative to DMSO control)
15 | – | CC(C)(C)OC(=O)CCCOCCNCc1cc(F)cc2c1ccn2Cc1ccc(Cl)cc1 [Compound 154] | ++ (>2-fold change in p62 puncta levels relative to DMSO control)
16 | – | COC(=O)C1(COCCNCc2cc(F)cc3c2ccn3Cc2ccc(Cl)cc2)COC1 [Compound 155] | + (<2-fold change in p62 puncta levels relative to DMSO control)
17 | – | CC(C)(C)OC(=O)N1CCN(CCOCCNCc2cc(F)cc3c2ccn3Cc2ccc(Cl)cc2)CC1 [Compound 156] | ++ (>2-fold change in p62 puncta levels relative to DMSO control)
18 | – | CC(C)(C)OC(=O)NCCCCCOCCNCc1cc(F)cc2c1ccn2Cc1ccc(Cl)cc1 [Compound 157] | ++ (>2-fold change in p62 puncta levels relative to DMSO control)
19 | – | CC(C)(C)OC(=O)NCCCCCCCCOCCNCc1cc(F)cc2c1ccn2Cc1ccc(Cl)cc1 [Compound 158] | ++ (>2-fold change in p62 puncta levels relative to DMSO control)

Row | receptor occupancy at 100 µM (Recombinant p62 protein) [%] | SMILES | p62 puncta (fold change of p62 puncta levels) (p62 puncta)
20 | – | CC(C)(C)OC(=O)NCCCCCCOCCNCc1cc(F)cc2c1ccn2Cc1ccc(Cl)cc1 [Compound 159] | ++ (>2-fold change in p62 puncta levels relative to DMSO control)
21 | – | CC(C)(C)OC(=O)Nc1ccc(COCCNCc2cc(F)cc3c2ccn3Cc2ccc(Cl)cc2)cc1 [Compound 160] | ++ (>2-fold change in p62 puncta levels relative to DMSO control)
22 | – | CC(C)(C)OC(=O)N1CCC(CCOCCNCc2cc(F)cc3c2ccn3Cc2ccc(Cl)cc2)CC1 [Compound 161] | ++ (>2-fold change in p62 puncta levels relative to DMSO control)
23 | – | CC(C)(C)OC(=O)Nc1cccc(COCCNCc2cc(F)cc3c2ccn3Cc2ccc(Cl)cc2)c1 [Compound 162] | ++ (>2-fold change in p62 puncta levels relative to DMSO control)
24 | – | CC(C)(C)OC(=O)NCCCOCCNCc1cc(F)cc2c1ccn2Cc1ccc(Cl)cc1 [Compound 163] | ++ (>2-fold change in p62 puncta levels relative to DMSO control)
25 | – | CC(C)(C)OC(=O)N1CC(COCCNCc2cc(F)cc3c2ccn3Cc2ccc(Cl)cc2)C1 [Compound 164] | ++ (>2-fold change in p62 puncta levels relative to DMSO control)
26 | – | CC(C)(C)OC(=O)NC1(COCCNCc2cc(F)cc3c2ccn3Cc2ccc(Cl)cc2)CC1 [Compound 165] | ++ (>2-fold change in p62 puncta levels relative to DMSO control)
27 | – | CC(C)(C)OC(=O)N1CCC(OCCNCc2cc(F)cc3c2ccn3Cc2ccc(Cl)cc2)C1 (centres unmarked) [Compound 166] | ++ (>2-fold change in p62 puncta levels relative to DMSO control)
28 | – | CC(C)(C)OC(=O)N1CC(OCCNCc2cc(F)cc3c2ccn3Cc2ccc(Cl)cc2)C1 [Compound 167] | ++ (>2-fold change in p62 puncta levels relative to DMSO control)
29 | – | COC(=O)c1ccc(OCCOCCNCc2cc(F)cc3c2ccn3Cc2ccc(Cl)cc2)cc1 [Compound 168] | ++ (>2-fold change in p62 puncta levels relative to DMSO control)
30 | – | COC(=O)CCOCCOCCOCCNCc1cc(F)cc2c1ccn2Cc1ccc(Cl)cc1 [Compound 169] | + (<2-fold change in p62 puncta levels relative to DMSO control)
31 | – | C#CCCCCCCCCOCCNCc1cc(F)cc2c1ccn2Cc1ccc(Cl)cc1 [Compound 170] | ++ (>2-fold change in p62 puncta levels relative to DMSO control)
32 | – | COC(=O)c1ccc(N2CCC(COCCNCc3cc(F)cc4c3ccn4Cc3ccc(Cl)cc3)CC2)cc1 [Compound 171] | ++ (>2-fold change in p62 puncta levels relative to DMSO control)
33 | – | CC(C)(C)OC(=O)NCC1CC(COCCNCc2cc(F)cc3c2ccn3Cc2ccc(Cl)cc2)C1 (centres unmarked) [Compound 172] | ++ (>2-fold change in p62 puncta levels relative to DMSO control)
34 | – | C#Cc1ccc(COCCNCc2cc(F)cc3c2ccn3Cc2ccc(Cl)cc2)cc1 [Compound 173] | ++ (>2-fold change in p62 puncta levels relative to DMSO control)
35 | – | CC(C)(C)OC(=O)N1CCC(COCCOCCNCc2cc(F)cc3c2ccn3Cc2ccc(Cl)cc2)CC1 [Compound 174] | ++ (>2-fold change in p62 puncta levels relative to DMSO control)
36 | – | CC(C)(C)OC(=O)NC[C@H]1CC[C@H](COCCNCc2cc(F)cc3c2ccn3Cc2ccc(Cl)cc2)CC1 [Compound 175] | ++ (>2-fold change in p62 puncta levels relative to DMSO control)
37 | – | CC(C)(C)OC(=O)N[C@H]1CC[C@@H](COCCNCc2cc(F)cc3c2ccn3Cc2ccc(Cl)cc2)CC1 [Compound 176] | ++ (>2-fold change in p62 puncta levels relative to DMSO control)
38 | – | CNCCOCc1cc(F)cc2c1ccn2Cc1ccc(Cl)cc1 [Compound 178] | ++ (>2-fold change in p62 puncta levels relative to DMSO control)
